In brackets after ≈: the same amount, converted by molar mass. Several values for one entry are separate records, joined by “and”; a condition that tells them apart may be missing. Identical values can stand only once. Like-named read-outs stand apart in the source and are kept apart here.
Columns and labels:
[1] = cited from earlier work
[2] = Single oral dose bioavailability study, fed/fasted crossover; format: in vivo, healthy subjects (human)
Experimental: Single oral dose bioavailability study of CEM-102 (sodium fusidate). […] This was a single-center, Phase 1, double-blind, randomized, 3 period, fed/fasted crossover bioequivalence study designed to evaluate the relative bioavailability and safety and tolerability of a single oral dose of CEM-102 500 mg compared to Fucidin® 500 mg in healthy subjects. Subjects were randomized in equal numbers to the 4 treatment sequences (Table 3).
Study Period 1, 2, and 3 (Days 1, 15, and 29): One dose of study drug 500 mg (2×250 mg) of CEM-102 or Fucidin® was given at 8:00 AM (˜30 minutes). On Day 1 of Study Periods 1 and 2 (Days 1 and 15), subjects fasted overnight for at least 10 hours prior to dosing. On Day 1 of Study Period 3 (Day 29), subjects were given a high fat caloric meal which was to be entirely consumed within 30 minutes prior to study drug administration.
Blood samples for assay of plasma concentrations were collected on Days 1, 15 and 29 at pre-dose and 0.5, 1, 1.5, 2, 2.5, 3, 3.5, 4, 6, 8, 12, 16, 24, 36, and 48 hours after the dose. Plasma concentrations were assayed at MicroConstants, Inc. in San Diego, Calif. using a validated liquid chromatography with dual tandem mass spectrometry (LC/MS/MS) method with a lower limit of quantitation (LLOQ) of 20.0 ng/mL

[3] = Multi-dose bioavailability study, 500 mg TID; format: in vivo, healthy subjects (human)
Experimental: Multi-dose bioavailability study using FA at 500 mg TID. The pharmacokinetics of multiple oral doses of CEM-102 (sodium fusidate) 500 mg tablets in healthy subjects was evaluated. […] Blood samples for assay of plasma concentrations of CEM-102 and placebo were collected pre-dose on Day 1 and at 24, 48, 72, and 96 hours. […] Plasma concentrations of CEM-102 were assayed at MicroConstants. Inc. in San Diego, Calif., USA using a validated LC/MS/MS method with a lower limit of quantitation (LLOQ) of 20.0 ng/mL.

[4] = system: Group A beta hemolytic Streptococcus; conditions: cited from earlier work
Staphylococcus = conditions: cited from earlier work
[5] = system: S. aureus MRSA (Mec A genotype); experiment: Agar dilution MIC against resistant S. aureus; format: cell-based; conditions: Staphylococcus aureus
Text: The in vitro activity of CEM-102 was compared with that of telithromycin, azithromycin, erythromycin, levofloxacin, linezolid, and doxycycline against a total of 145 resistant S. aureus by agar dilution procedures (CLSI, M7-A7, M100-S18). The tested strains included S. aureus MRSA (Mec A genotype; 100 isolates), macrolide-resistant (ermA, B, C genotype or MLSb-resistant; 25), and ciprofloxacin-resistant (gyrA and parC genotype; 20).

S. aureus [6] = experiment: Reference broth microdilution susceptibility testing, Canadian isolates; format: cell-based
Text: (§1) To determine a contemporary susceptibility (S) spectrum pattern. 153 GP isolates (123 S. aureus, 15 coagulase-negative staphylococci [CoNS] and 15 S. pyogenes [SPYO]) were collected from 5 Canadian medical centers between 2001 and 2006.

S. pyogenes [SPYO] = experiment: as above; format: cell-based; conditions: Streptococcus pyogenes; all 15 isolates
Text: as §1

[7] = system: coagulase-negative staphylococci [CoNS]; experiment: as above; format: cell-based; conditions: 15 isolates
Text: as §1

WT isolates = experiment: MIC with 10% human serum added; format: cell-based
Experimental: CLSI broth microdilution (BMD) and anaerobic agar dilution (AD) methods were performed. Modifications of standard test methods included adding 10% human serum, adjusting the medium pH to 5, 6, and 8, and synergy was assessed by the checkerboard method. Mutational rates to R were determined at 4×.

S. aureus [8] = conditions: cited from earlier work
[9] = Dose escalation study, single and multiple doses: PK, safety, tolerability; format: in vivo, healthy adult subjects (human)
Experimental: Dose Escalation Study Using Single- and Multi-Dose FA. The pharmacokinetics (PK), safety, and tolerability of single and multiple doses of CEM-102 (sodium fusidate) were evaluated in a single-center, Phase 1, double-blind, randomized, placebo-controlled, dose-escalating study in 32 healthy adult subjects enrolled in 4 dosage groups (550, 1100, 1650, and 2200 mg). In each cohort, six subjects were to receive CEM-102 and two were to receive placebo in a single dose (Period 1) and then multiple doses BID for a total of 11 doses over 5.5 days (Period 2). The two dosing periods were separated by a seven-day washout period between the single dose in Period 1 and the first dose in Period 2.
Dosing proceeded as planned for Cohorts 1 to 3; however, Cohort 4 received only the single dose of 2200 mg (Period 1), because dose-limiting gastrointestinal intolerance was observed after multiple doses of 1650 mg BID in Cohort 3. Period 2 for Cohort 4 evaluated an initial loading dose regimen, and a second loading dose regimen was evaluated in an additional cohort (Cohort 5) per a protocol amendment.

[10] = Period 1 Day 1, single dose 1650 mg

CC(=O)O[C@H]1C[C@@]2(C)[C@@H](C[C@@H](O)[C@H]3[C@@]4(C)CC[C@@H](O)[C@@H](C)[C@@H]4CC[C@@]32C)/C1=C(\CCC=C(C)C)C(=O)O [FA, fusidic acid]
Cmax in plasma at steady state ([1]; 500 mg TID, steady state after the 4th day): 140 µg/mL | Cmax in plasma ([1]; after the first day of treatment, 500 mg TID): around 30 ug/ml | oral bioavailability ([1]; oral): around 98% | total exposure (AUC) ([2]; 500 mg, fasting): ~318 µg·h/mL | total exposure (AUC) ([2]; 500 mg, fed): approximately 285 μg·h/mL | tmax, median ([2]; human, in vivo, po): ~3.00 h | t1/2, arithmetic mean ± SD ([2]; human, in vivo, po, 500 mg): ~11.8 h | tmax, median ([2]; single oral 500 mg (2×250 mg), fasting): 3.00 h | tmax, median ([2]; single oral 500 mg (2×250 mg), fed): 3.50 h | Cmaxss, geometric mean (CV %) ([3]; human, in vivo, 500 mg): 145680 (25.3) ng/mL | t½ss, arithmetic mean ± SD ([3]; human, in vivo, 500 mg): approximately 19 h | Trough level ([3]; prior to dosing on Day 5, 500 mg TID): 105 µg/mL | MIC90 [4]: 4 to 8 µg/mL | MICs ([4]; classified as moderately susceptible): 4-16 micrograms per ml | MIC in plasma protein (Staphylococcus): ≥ 2.5 micrograms per ml | increase of MIC in plasma protein (Staphylococcus): 8-10 fold | MIC90 [5]: 0.25 µg/mL (≈ 0.484 µM) | % at ≤0.5 (S. aureus [6]; 2001-2002): 95.0% | No. inhibited at MIC 0.06 μg/mL (S. aureus [6]; 2001-2002): 8 | No. inhibited at MIC […] (S. aureus [6]; 2001-2002): 29 and 1 | No. inhibited at MIC ≥2 μg/mL (S. aureus [6]; 2001-2002): 2 | R rate over time (S. aureus [6]; 2001-2006, breakpoint ≤0.5 μg/ml (S) and ≤2 μg/ml (R)): 5.0-12.2% | % at ≤0.5 (S. aureus [6]; 2003-2004): 92.9% | MIC50 (S. aureus [6]; 2003-2004): 0.12 µg/mL (≈ 0.232 µM) | No. inhibited at MIC 0.06 μg/mL (S. aureus [6]; 2003-2004): 6 | No. inhibited at MIC […] (S. aureus [6]; 2003-2004): 33 | No. inhibited at MIC ≥2 μg/mL (S. aureus [6]; 2003-2004): 3 | % at ≤0.5 (S. aureus [6]; 2005-2006): 87.8% | No. inhibited at MIC 0.06 μg/mL (S. aureus [6]; 2005-2006): 2 | No. inhibited at MIC […] (S. aureus [6]; 2005-2006): 32 and 2 | No. inhibited at MIC ≥2 μg/mL (S. aureus [6]; 2005-2006): 5 | MIC90 (S. aureus [6]; Staphylococcus aureus, 2003-2004): 0.12 µg/mL (≈ 0.232 µM) | MIC90 (S. aureus [6]; Staphylococcus aureus, 2005-2006): ≥ 2 µg/mL | MIC90 (S. aureus [6]; Staphylococcus aureus, overall S. aureus population): 0.25 µg/mL (≈ 0.484 µM) | MIC90 (S. aureus [6]; Staphylococcus aureus, 2001-2002): 0.12 µg/mL (≈ 0.232 µM) | MIC50 (S. aureus [6]; Staphylococcus aureus, 2001-2002, read-out: MIC50): 0.12 µg/mL (≈ 0.232 µM) | R rate (S. aureus [6]; overall S. aureus population): 8.1% | MIC (S. pyogenes [SPYO]): 4 to 8 µg/mL (≈ 7.74 to 15.5 µM) | MIC50 [7]: 0.12 µg/mL (≈ 0.232 µM) | MIC90 [7]: 16 µg/mL (≈ 31 µM) | increase in MIC when 10% serum was added (WT isolates): 4 fold | MICs of resistant S. aureus strains (S. aureus [8]; FA-resistant strains): > 256 µg/mL | actual MIC (S. aureus [8]; S. aureus, without protein): < 0.25 µg/mL | MIC90 (S. aureus [8]; S. aureus): 0.12 µg/mL (≈ 0.232 µM) | tmax, median ([9]; Period 1 Day 1, single dose 1100 mg): 3.50 h | T1/2, harmonic mean [9, 10]: 13.9 h | tmax, median [9, 10]: 3.00 h | tmax, median ([9]; Period 2 Day 6, 1100 mg BID): 4.00 h | CL/F, mean ([9]; human, in vivo, 2200 mg): 0.924 L/h | gastrointestinal AEs after single dose ([9]; in vivo): no gastrointestinal AEs were reported | serious or life-threatening adverse events ([9]; in vivo): No serious or life-threatening adverse events (AEs) occurred | tolerability of single doses ([9]; in vivo): well tolerated

Source: patent US20190388437A1, “COMPOSITIONS AND METHODS FOR TREATING BONE AND JOINT INFECTIONS” (priority 2014, published 2019)
